Laboratory results from PMC7665192, “A natriuretic peptide from Arabidopsis thaliana (AtPNP-A) can modulate catalase 2 activity” (Scientific Reports, 2020).

Assays:
[1] = system: ADH5, alcohol dehydrogenase 2; assay: Yeast two-hybrid (Y2H) screen; assay type: binding, A. thaliana; settings: bait AtPNP-A amino acids 26–130, prey At5g43940.1
Protocol: (§1) The Y2H screen using AtPNP-A as bait was carried out by Dualsystems Biotech AG (Zurich, Switzerland). The bait construct for the screening was made by subcloning the cDNA fragment encoding exported portion of AtPNP-A (amino acids 26 to 130) (Fig. 1a) into the pLexA-DIR vector (Dualsystems Biotech AG). The bait construct was transformed into the strain NMY32 (MATa his3Δ200 trp1-901 leu2-3,112 (lexAop)8-ADE2 LYS2::(lexAop)4-HIS3 URA3::(lexAop)8-lacZ GAL4) using standard procedures. Correct expression of the bait was verified by western blotting of cell extracts using a mouse monoclonal antibody directed against the LexA domain (Dualsystems Biotech AG). The absence of self-activation was verified by co-transformation of the bait together with a control prey and selection on minimal medium lacking tryptophan, leucine, and histidine (selective medium). For the Y2H screen, the bait was co-transformed together with a normalized A. thaliana universal P02403 cDNA library (Dualsystems Biotech AG) into NMY32. 3.1 × 10^6 transformants were screened, yielding 96 transformants that grew on selective medium. […] Library plasmids were isolated from positive clones. The identity of positive interactants was determined by sequencing. DNA sequences translated in all three reading frames and searching against the SwissProt database using the BLASTX algorithm (https://blast.ncbi.nlm.nih.gov).

[2] = system: Basic-leucine zipper (bZIP) TF family protein; assay: Yeast two-hybrid (Y2H) screen; assay type: binding, A. thaliana; settings: bait AtPNP-A amino acids 26–130, prey At2g31370.1
Protocol: as §1

CAT2, catalase 2 = assay: Yeast two-hybrid (Y2H) screen; assay type: binding, A. thaliana; settings: bait AtPNP-A amino acids 26–130, prey At4g35090.1
Protocol: as §1

[3] = system: CLA, 1-deoxy-D-xylulose-5-phosphate synthase; assay: Yeast two-hybrid (Y2H) screen; assay type: binding, A. thaliana; settings: bait AtPNP-A amino acids 26–130, prey At4g15560.1
Protocol: as §1

COL1, constans-like 1 = assay: Yeast two-hybrid (Y2H) screen; assay type: binding, A. thaliana; settings: bait AtPNP-A amino acids 26–130, prey At5g15850.1
Protocol: as §1

[4] = system: CRF6, cytokinin response factor 6; assay: Yeast two-hybrid (Y2H) screen; assay type: binding, A. thaliana; settings: bait AtPNP-A amino acids 26–130, prey At3g61630.1
Protocol: as §1

[5] = system: ER, enhanced of rudimentary homologue, ATER; assay: Yeast two-hybrid (Y2H) screen; assay type: binding, A. thaliana; settings: bait AtPNP-A amino acids 26–130, prey At5g10810.1
Protocol: as §1

[6] = system: ERF7, ethylene response factor 7; assay: Yeast two-hybrid (Y2H) screen; assay type: binding, A. thaliana; settings: bait AtPNP-A amino acids 26–130, prey At3g20310.1
Protocol: as §1

[7] = system: ERP/AP2, ethylene response factor; assay: Yeast two-hybrid (Y2H) screen; assay type: binding, A. thaliana; settings: bait AtPNP-A amino acids 26–130, prey At5g07580.1
Protocol: as §1

Expr, expansin-like B1 = assay: Yeast two-hybrid (Y2H) screen; assay type: binding, A. thaliana; settings: bait AtPNP-A amino acids 26–130, prey At4g17030.1
Protocol: as §1

FED A, ferredoxin 2 = assay: Yeast two-hybrid (Y2H) screen; assay type: binding, A. thaliana; settings: bait AtPNP-A amino acids 26–130, prey At1g60950.1
Protocol: as §1

[8] = system: HISN5B, histidine biosynthesis 5B; assay: Yeast two-hybrid (Y2H) screen; assay type: binding, A. thaliana; settings: bait AtPNP-A amino acids 26–130, prey At4g14910.1
Protocol: as §1

[9] = system: IGPD, imidazole glycerol-phosphate dehydratase; assay: Yeast two-hybrid (Y2H) screen; assay type: binding, A. thaliana; settings: bait AtPNP-A amino acids 26–130, prey At3g22425.1
Protocol: as §1

NUDX1, nudix hydrolase 1 = assay: Yeast two-hybrid (Y2H) screen; assay type: binding, A. thaliana; settings: bait AtPNP-A amino acids 26–130, prey At1g68760.1
Protocol: as §1

[10] = system: PGR1, photosynthetic electron transfer C; assay: Yeast two-hybrid (Y2H) screen; assay type: binding, A. thaliana; settings: bait AtPNP-A amino acids 26–130, prey At4g03280.1
Protocol: as §1

PLL4, poltergeist like 4 = assay: Yeast two-hybrid (Y2H) screen; assay type: binding, A. thaliana; settings: bait AtPNP-A amino acids 26–130, prey At2g28890.1
Protocol: as §1

[11] = system: Protein containing PAM2 motif; assay: Yeast two-hybrid (Y2H) screen; assay type: binding, A. thaliana; settings: bait AtPNP-A amino acids 26–130, prey At4g14270.1
Protocol: as §1

[12] = system: RAP2.12, ethylene response factor; assay: Yeast two-hybrid (Y2H) screen; assay type: binding, A. thaliana; settings: bait AtPNP-A amino acids 26–130, prey At1g53910.1
Protocol: as §1

RCA, rubisco activase = assay: Yeast two-hybrid (Y2H) screen; assay type: binding, A. thaliana; settings: bait AtPNP-A amino acids 26–130, prey At2g39730.1
Protocol: as §1

[13] = system: SHA1, shoot apical meristem arrest 1; assay: Yeast two-hybrid (Y2H) screen; assay type: binding, A. thaliana; settings: bait AtPNP-A amino acids 26–130, prey At5g63780.1
Protocol: as §1

Unknown protein = assay: Yeast two-hybrid (Y2H) screen; assay type: binding, A. thaliana; settings: bait AtPNP-A amino acids 26–130, prey At5g39570.1
Protocol: as §1

cGMP = settings: cited from earlier work
Text: Similarly, identification of novel receptors targeted by an increasing number of peptidic plant hormones discovered in the last few decades[8],[9] is anticipated. One of those, the plant natriuretic peptides (PNPs), are a group of systemically mobile signals[10] that have a role in the maintenance of salt and water balance[11],[12]. An A. thaliana PNP, termed AtPNP-A (At2g18660; Q9ZV52), has been implicated in several physiological processes ranging from the regulation of stomatal aperture, osmoticum-dependent volume changes[13],[14] and modulation of developmental stage- and tissue-specif ... || A PNP_CAT interaction in plant responses to infecting pathogens is not surprising. CATs commonly function to down-regulate ROS during ABA-induced stomatal closure, and ABA-induced stomatal closure can be inhibited by removal of H2O2 via CAT2[73],[74]. […] Therefore, it is tempting to speculate that AtPNP-A modulates the effect of ABA on stomatal aperture through the interaction w ...

AtPNP-A: An A. thaliana PNP, termed AtPNP-A (At2g18660; Q9ZV52)
Strength of binding [1]: Weak | Strength of binding [2]: Weak | Strength of binding (CAT2, catalase 2): Weak | Strength of binding [3]: Weak | Strength of binding (COL1, constans-like 1): Weak | Strength of binding [4]: Weak | Strength of binding [5]: Weak | Strength of binding [6]: Strong | Strength of binding [7]: Strong | Strength of binding (Expr, expansin-like B1): Weak | Strength of binding (FED A, ferredoxin 2): Weak | Strength of binding [8]: Moderate | Strength of binding [9]: Strong | Strength of binding (NUDX1, nudix hydrolase 1): Moderate | Strength of binding [10]: Weak | Strength of binding (PLL4, poltergeist like 4): Strong | Strength of binding [11]: Moderate | Strength of binding [12]: Strong | Strength of binding (RCA, rubisco activase): Strong | Strength of binding [13]: Strong | Strength of binding (Unknown protein): Weak | Elevation of cGMP (cGMP): rapid elevation of 3′,5′-cyclic guanosine monophosphate (cGMP)
